Source: PubChem BioAssay AID1259407 (Chemical Carcinogenesis Research Information System (CCRIS), 2018)
Active and inactive are the calls of the source. The rule behind the calls is not given here.

System: CCRIS mutagenicity, Ames/micronucleus/aberration tests
Experiment: CCRIS mutagenicity studies

Measured: mutagenic call

CN(N=O)C(N)=O
active: End Point: IN VITRO CHROMOSOMAL ABERRATIONS, Test System: CHINESE HAMSTER V79-E CELLS, Metabolic Activation: NONE active; positive | End Point: IN VITRO CHROMOSOMAL ABERRATIONS, Test System: V79 CELLS (V79-C10), Metabolic Activation: NONE active; positive | End Point: IN VITRO MICRONUCLEUS, Test System: CHINESE HAMSTER V79 CELLS, Metabolic Activation: NONE active; positive at the cytotoxic dose of 0.8 mm | End Point: IN VITRO MICRONUCLEUS, Test System: MOUSE LYMPHOMA L5178Y CELLS, Metabolic Activation: NONE active; positive | End Point: Mutagenicity, Test System: Spleen: t-lymphocytes/hprt mutants, Species: Rat, Strain/Sex: Wistar/male, Route: Intraperitoneal active; positive; mutation induction dramatically lower following subchronic treatment; | Test System: AMES SALMONELLA TYPHIMURIUM, Strain/Indicator: G46, Metabolic Activation: NONE, Method: STANDARD PLATE active; positive | Test System: AMES SALMONELLA TYPHIMURIUM, Strain/Indicator: TA100, Metabolic Activation: NONE, Method: LIQUID INCUBATION active; positive | Test System: AMES SALMONELLA TYPHIMURIUM, Strain/Indicator: TA100, Metabolic Activation: NONE, Method: STANDARD PLATE active; positive | Test System: AMES SALMONELLA TYPHIMURIUM, Strain/Indicator: TA100, Metabolic Activation: RAT, LIVER, S-9, AROCLOR 1254, Method: PREINCUBATION active; positive | Test System: AMES SALMONELLA TYPHIMURIUM, Strain/Indicator: TA100, Metabolic Activation: RAT, LIVER, S-9, KC500 OR PHENOBARBITAL, Method: LIQUID SUSPENSION active; positive | Test System: AMES SALMONELLA TYPHIMURIUM, Strain/Indicator: TA100, Metabolic Activation: RAT, LIVER, S-9, PHENOBARBITAL, Method: STANDARD PLATE active; positive | Test System: AMES SALMONELLA TYPHIMURIUM, Strain/Indicator: TA102, Metabolic Activation: RAT, LIVER, S-9, AROCLOR 1254, Method: PREINCUBATION active; positive | Test System: AMES SALMONELLA TYPHIMURIUM, Strain/Indicator: TA104, Metabolic Activation: NONE, Method: PREINCUBATION active; positive | Test System: AMES SALMONELLA TYPHIMURIUM, Strain/Indicator: TA104, Metabolic Activation: RAT, LIVER, S-9, AROCLOR 1254, Method: PREINCUBATION active; positive | Test System: AMES SALMONELLA TYPHIMURIUM, Strain/Indicator: TA1530, Metabolic Activation: NONE, Method: PREINCUBATION active; positive | Test System: AMES SALMONELLA TYPHIMURIUM, Strain/Indicator: TA1530, Metabolic Activation: NONE, Method: STANDARD PLATE active; positive | Test System: AMES SALMONELLA TYPHIMURIUM, Strain/Indicator: TA1535, Metabolic Activation: NONE, Method: LIQUID INCUBATION active; positive | Test System: AMES SALMONELLA TYPHIMURIUM, Strain/Indicator: TA1535, Metabolic Activation: NONE, Method: PREINCUBATION active; positive | Test System: AMES SALMONELLA TYPHIMURIUM, Strain/Indicator: TA1535, Metabolic Activation: NONE, Method: STANDARD PLATE active; positive | Test System: AMES SALMONELLA TYPHIMURIUM, Strain/Indicator: TA1535, Metabolic Activation: RAT, LIVER, S-9, PCB OR PHENOBARBITAL, Method: STANDARD PLATE active; positive | Test System: AMES SALMONELLA TYPHIMURIUM, Strain/Indicator: YG7100, Metabolic Activation: NONE, Method: PREINCUBATION active; positive | Test System: AMES SALMONELLA TYPHIMURIUM, Strain/Indicator: YG7104, Metabolic Activation: NONE, Method: PREINCUBATION active; positive | Test System: AMES SALMONELLA TYPHIMURIUM, Strain/Indicator: YG7108, Metabolic Activation: NONE, Method: PREINCUBATION active; positive | Test System: AMES SALMONELLA TYPHIMURIUM, Strain/Indicator: YG7112, Metabolic Activation: NONE, Method: PREINCUBATION active; positive | Test System: AMES SALMONELLA TYPHIMURIUM, Strain/Indicator: YG7113, Metabolic Activation: NONE, Method: PREINCUBATION active; positive | Test System: AMES SALMONELLA TYPHIMURIUM, Strain/Indicator: YG7119, Metabolic Activation: NONE, Method: PREINCUBATION active; positive | Test System: CHINESE HAMSTER OVARY, Strain/Indicator: CHO-K1-BH4 (HGPRT), Metabolic Activation: NONE, Method: SUSPENSION/PLATE active; positive | Test System: CHINESE HAMSTER V-79, Strain/Indicator: V-79/6-THIOGUANINE, Metabolic Activation: NONE, Method: FLASK ASSAY active; positive | Test System: CHINESE HAMSTER V-79, Strain/Indicator: V-79/6-THIOGUANINE, Metabolic Activation: NONE, Method: STANDARD PLATE active; positive | Test System: CHINESE HAMSTER V-79, Strain/Indicator: V-79/8-AZAGUANINE, Metabolic Activation: NONE, Method: STANDARD PLATE active; positive | Test System: CHINESE HAMSTER V-79, Strain/Indicator: V-79/OUABAIN, Metabolic Activation: NONE active; positive | Test System: CHO/HGPRT, Strain/Indicator: CHO-K1-BH4, Metabolic Activation: NONE active; positive | Test System: CHO/HGPRT, Strain/Indicator: CHO-K1-BH4, Metabolic Activation: NONE, Method: STANDARD PLATE active; positive | Test System: E. COLI, Strain/Indicator: H/R30R, Metabolic Activation: NONE active; positive | Test System: E. COLI, Strain/Indicator: H/R30R, Metabolic Activation: NONE, Method: PREINCUBATION active; positive | Test System: E. COLI, Strain/Indicator: HS30R UVRA, Metabolic Activation: NONE, Method: PREINCUBATION active; positive | Test System: E. COLI, Strain/Indicator: HS30R, Metabolic Activation: NONE active; positive | Test System: E. COLI, Strain/Indicator: NG30 RECA, Metabolic Activation: NONE, Method: PREINCUBATION active; positive | Test System: E. COLI, Strain/Indicator: O16 POLA, Metabolic Activation: NONE, Method: PREINCUBATION active; positive | Test System: E. COLI, Strain/Indicator: WP2, Metabolic Activation: NONE, Method: FLUCTUATION active; positive | Test System: E. COLI, Strain/Indicator: WP2, Metabolic Activation: NONE, Method: STANDARD PLATE active; positive | Test System: E. COLI, Strain/Indicator: WP2 UVRA, Metabolic Activation: NONE, Method: FLUCTUATION active; positive | Test System: E. COLI, Strain/Indicator: WP2 UVRA, Metabolic Activation: NONE, Method: STANDARD PLATE active; positive | Test System: LacZ transgenic mouse (Muta Mouse), Strain/Indicator: LacZ Mutant frequency, Method: Liver and kidney harvested 37 days after last dose active; positive in kidney. no increase in mutation frequency in liver. | Test System: UDS HUMAN CELLS, Strain/Indicator: THY INCORP (NON-S-PHASE), Metabolic Activation: NONE, Method: LIQUID SCINTILLATION COUNTING active; positive | Test System: UDS HUMAN FIBROBLASTS, Strain/Indicator: THY INCORP (NON-S-PHASE), Metabolic Activation: NONE, Method: AUTORADIOGRAPHY active; positive | Test System: UDS MOUSE SPERMATOGONIAL AND POSTSPERMATOGONIAL CELLS IN VIVO, Strain/Indicator: THYMIDINE INCORPORATION, Metabolic Activation: NONE, Method: AUTORADIOGRAPHY active; positive | Test System: UDS RODENT CELLS, Strain/Indicator: THY INCORP (NON-S-PHASE), Metabolic Activation: NONE, Method: LIQUID SCINTILLATION COUNTING active; positive
